Results reported in patent US5304560A, “Quinazoline derivatives and their preparation” (Fujisawa Pharmaceutical Co., Ltd., priority 1990, dated 1994).

Tests used:
[1] = tested on: reserpine-induced DOPA accumulation; test: Inhibition of reserpine-induced DOPA accumulation; format: in vivo, Male SD rats; conditions: dose 3.2 mg/kg, oral, 2 hours before sacrifice; reserpine 1 mg/kg s.c. 17-19 hours before; striatum DOPA
Method: Test 2 [Inhibition of reserpine-induced DOPA accumulation]
Male SD rats weighing 300-400 g were used in this test. Rats were pretreated with reserpine (1 mg/kg, S.C.) 17-19 hours before sacrifice and then fasted. Test Compound was given orally to the rats 2 hours before sacrifice. [m-Hydroxybenzylhydrazine (100 mg/kg, i.p.) was given 30 minutes before sacrifice.] Each rat was exposed to microwaves using a head-focus microwave applicator for 1.5 seconds. The whole brain was removed and further separated into the striatum.
DOPA was determined as follows; the striatum was homogenized in 9 volumes of 0.1N perchloric acid solution (0.4% EDTA·2Na). The homogenate was centrifuged at 10,000 rpm for 1 minutes. The supernatant was applied to high performance liquid chromatography.

[2] = tested on: spontaneous hypertensive rats; test: Hypotensive effect on spontaneous hypertensive rats; format: in vivo, rat; conditions: dose 1 mg/kg, oral, in 0.5% methylcellulose; 15 to 25-week-old male spontaneous hypertensive rats
Method: Test 3 [Hypotensive effect on spontaneous hypertensive rats]
15 to 25-Week-old male spontaneous hypertensive rats with mean arterial blood pressure of about 160-200 mmHg, weighing 300-350 g, were used. The animals were cannulated in the left femoral artery and the mean blood pressure and heart rate were measured with a pressure-transducer. The animals were deprived of food for about 18 hours before oral dosing. The Test Compound was suspended in 0.5% methylcellulose, and given orally.

[3] = target: T1, DA2 receptor (Rattus norvegicus, UniProt P61169); test: Dopamine receptor (DA2 receptor) binding assay; conditions: [3H]spiperone 0.2 nM; rat striatum 160 μg/ml; 37° C., 10 minutes, pH 7.4
T1 construct: The final tissue concentration of rat striatum was 160 μg/ml; from tissue; host or cells: rat striatum (printed 'stratum'), washed homogenate
T1 sequence (P61169 whole entry): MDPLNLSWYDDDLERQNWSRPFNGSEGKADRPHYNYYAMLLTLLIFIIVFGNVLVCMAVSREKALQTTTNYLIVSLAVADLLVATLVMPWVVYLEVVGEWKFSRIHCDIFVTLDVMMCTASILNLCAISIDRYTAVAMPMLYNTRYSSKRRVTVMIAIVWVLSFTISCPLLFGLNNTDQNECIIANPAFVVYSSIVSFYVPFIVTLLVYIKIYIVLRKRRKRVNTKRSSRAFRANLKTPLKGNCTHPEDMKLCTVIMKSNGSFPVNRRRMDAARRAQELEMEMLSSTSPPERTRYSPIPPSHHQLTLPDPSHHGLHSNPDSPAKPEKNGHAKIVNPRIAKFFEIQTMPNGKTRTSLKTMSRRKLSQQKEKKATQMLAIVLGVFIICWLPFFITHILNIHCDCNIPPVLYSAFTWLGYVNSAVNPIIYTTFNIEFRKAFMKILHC
Method: Test 1 [Dopamine receptor (DA2 receptor) binding assay]
The affinity for DA2 receptor of a Test Compound was determined following in vitro receptor binding assays.
Male rats weighing 150-300 g were decapitated and the stratum were dissected from their brains. The tissue was homogenized in 30 volumes of buffer which consisted of 50 mM Tris-HCl (pH 7.4 at 25° C.), 120 mM sodium chloride, 5 mM potassium chloride, 1 mM calcium chloride, 1 mM magnesium chloride, 10 μM pargirine, and 0.1% ascorbic acid. The homogenate was centrifuged at 50,000 g for 15 minutes. The pellet was resuspended in 30 volumes of the buffer. The tissue suspension was centrifuged and suspended again in the same way.
Incubation tubes received 100 μl of [phenyl-4-^3 H]spiperone, 100 μl of the Test Compound and 0.8 ml of tissue suspension during binding assays. The concentration of [phenyl-4-^3 H]spiperone was 0.2 nM. The final tissue concentration of rat striatum was 160 μg/ml. […] The filters were counted by liquid scintillation counter.
Specific binding of the [^3 H]spiperone was determined in the presence of 1 μM butaclamol. The IC50 value of the Test Compound was calculated from the data of [^3 H]spiperone binding in the presence of 10^-9 M, 10^-8 M, 10^-7 M and 10^-6 M Test Compound.

Compound: Br.O=c1[nH]c(=O)n(CCCCN2CC=C(c3ccccc3)CC2)c2cc(O)ccc12 [Compound A, 1-[4-(4-phenyl-1,2,3,6-tetrahydropyridin-1-yl)butyl]-7-hydroxy-2,4(1H,3H)-quinazolinedione hydrobromide]
- Inhibition (%) [1]: 10%
- Maximum decrease of blood pressure (%) [2]: 19%
- IC50 [3]: 7.4 nM
